In brackets after ≈: the same amount, converted by molar mass. Square brackets hold non-standard residues; d marks the D form. Peptide text beside a SMILES is read from it. ξ: configuration not given here. Pro(3ξ,4ξ-(CH2)4) = O=C(O)[C@H]1NCC2CCCCC21; Tic = O=C(O)[C@@H]1Cc2ccccc2CN1; Dab = NCC[C@H](N)C(=O)O
Assays:
[1] = tested on: Pseudomonas aeruginosa; assay: Antibacterial activity against Pseudomonas aeruginosa PAO1 after 24 hrs by broth microdilution method; assay type: functional; details: PAO1, 24 h
[2] = tested on: NHDF; assay: Cytotoxicity against NHDF at >50 ug/ml after 6 hrs by LDH assay; assay type: cell-based; details: human
[3] = tested on: NHDF; assay: Cytotoxicity against NHDF at 50 ug/ml after 6 hrs by MTT assay; assay type: cell-based; details: human
[4] = tested on: Staphylococcus aureus; assay: Antibacterial activity against methicillin-sensitive Staphylococcus aureus UAMS-1 after 24 hrs by broth microdilution method; assay type: functional; details: UAMS-1, 24 h
[5] = tested on: Klebsiella aerogenes; assay: Antibacterial activity against Enterobacter aerogenes after 24 hrs by broth microdilution method; assay type: functional
[6] = tested on: NHDF; assay: Cytotoxicity against NHDF at 50 ug/ml after 6 hrs by LDH assay; assay type: cell-based; details: human
[7] = tested on: Enterococcus faecium; assay: Antibacterial activity against Enterococcus faecium MMC4 after 24 hrs by broth microdilution method; assay type: functional; details: MMC4, 24 h
[8] = tested on: Acinetobacter baumannii; assay: Antibacterial activity against Acinetobacter baumannii WRAIR clinical isolate 13 after 24 hrs by broth microdilution method; assay type: functional; details: WRAIR clinical isolate 13, 24 h
[9] = tested on: NHDF; assay: Cytotoxicity against NHDF at >50 ug/ml after 6 hrs by MTT assay; assay type: cell-based; details: human
[10] = tested on: Staphylococcus aureus; assay: Antibacterial activity against community-associated methicillin-resistant Staphylococcus aureus USA300 after 24 hrs by broth microdilution method; assay type: functional; details: USA300, 24 h
[11] = tested on: Klebsiella pneumoniae; assay: Antibacterial activity against Klebsiella pneumoniae BAMS clinical isolate 07-18 after 24 hrs by broth microdilution method; assay type: functional; details: BAMS clinical isolate 07-18, 24 h

SMILES | MBC [1] [µg/mL] | MIC [1] [µg/mL] | Activity [2] | Activity [3] | MBC [4] [µg/mL] | MIC [4] [µg/mL] | MBC [5] [µg/mL] | MIC [5] [µg/mL] | Activity [6] | MBC [7] [µg/mL] | MIC [7] [µg/mL] | MBC [8] [µg/mL] | MIC [8] [µg/mL] | Activity [9] | MIC [10] [µg/mL] | MBC [11] [µg/mL] | MIC [11] [µg/mL]
CC(=O)NCC(=O)N[C@@H](Cc1ccccc1)C(=O)N1Cc2ccccc2C[C@H]1C(=O)N1CC2CCCCC2[C@H]1C(=O)NCC(=O)N[C@@H](CCN)C(=O)N1Cc2ccccc2C[C@H]1C(=O)N1CC2CCCCC2[C@H]1C(=O)NCC(=O)N[C@@H](Cc1ccccc1)C(=O)N1Cc2ccccc2C[C@H]1C(=O)N1CC2CCCCC2[C@H]1C(=O)NCC(=O)N[C@@H](CCN)C(=O)N1Cc2ccccc2C[C@H]1C(=O)N[C@@H](CCN)C(=O)N[C@@H](CCN)C(=O)N[C@@H](CCN)C(=O)N[C@@H](CCN)C(N)=O (stereo partly drawn) (Ac-GF[Tic][Pro(3ξ,4ξ-(CH2)4)]G[Dab][Tic][Pro(3ξ,4ξ-(CH2)4)]GF[Tic][Pro(3ξ,4ξ-(CH2)4)]G[Dab][Tic][Dab][Dab][Dab][Dab]-NH2) | 25 (≈ 11 µM) | 12.5 (≈ 5.5 µM) | Toxic | Non-toxic | 50 (≈ 22 µM) | 50 (≈ 22 µM) | 25 (≈ 11 µM) | 25 (≈ 11 µM) | Non-toxic | 50 (≈ 22 µM) | 6.25 (≈ 2.75 µM) | 12.5 (≈ 5.5 µM) | 6.25 (≈ 2.75 µM) | Toxic | 25 (≈ 11 µM) | 12.5 (≈ 5.5 µM) | 12.5 (≈ 5.5 µM)
CC(C)C[C@H](NC(=O)[C@@H](N)CCCCN)C(=O)N1Cc2ccccc2C[C@H]1C(=O)N1CC2CCCCC2[C@H]1C(=O)N[C@@H](CCCCN)C(=O)NCC(=O)N1Cc2ccccc2C[C@H]1C(=O)N1CC2CCCCC2[C@H]1C(=O)N[C@@H](Cc1ccccc1)C(=O)NCC(=O)N1Cc2ccccc2C[C@H]1C(=O)N1CC2CCCCC2[C@H]1C(=O)N[C@@H](CCCCN)C(=O)NCC(=O)N1Cc2ccccc2C[C@H]1C(=O)N1CC2CCCCC2[C@H]1C(=O)N[C@@H](Cc1ccccc1)C(=O)NCC(=O)N1Cc2ccccc2C[C@H]1C(=O)N1CC2CCCCC2[C@H]1C(=O)N[C@@H](CCCCN)C(=O)NCC(=O)N1Cc2ccccc2C[C@H]1C(=O)N1CC2CCCCC2[C@H]1C(=O)N[C@@H](CCCCN)C(=O)N[C@@H](CCCCN)C(=O)N[C@@H](CCCCN)C(=O)N[C@@H](CCCCN)C(N)=O (stereo partly drawn) (H-KL[Tic][Pro(3ξ,4ξ-(CH2)4)]KG[Tic][Pro(3ξ,4ξ-(CH2)4)]FG[Tic][Pro(3ξ,4ξ-(CH2)4)]KG[Tic][Pro(3ξ,4ξ-(CH2)4)]FG[Tic][Pro(3ξ,4ξ-(CH2)4)]KG[Tic][Pro(3ξ,4ξ-(CH2)4)]KKKK-NH2) | 50 (≈ 13.9 µM) | 50 (≈ 13.9 µM) | Toxic | Non-toxic | 50 (≈ 13.9 µM) | 12.5 (≈ 3.47 µM) | 50 (≈ 13.9 µM) | 50 (≈ 13.9 µM) | Non-toxic | 25 (≈ 6.95 µM) | 6.25 (≈ 1.74 µM) | 25 (≈ 6.95 µM) | 12.5 (≈ 3.47 µM) | Toxic | – | 50 (≈ 13.9 µM) | 50 (≈ 13.9 µM)

Reference: ChEMBL document CHEMBL2375306, “Antimicrobial peptides containing unnatural amino acid exhibit potent bactericidal activity against ESKAPE pathogens” (Bioorg Med Chem, 2013)
